Bounds are passed on as bounds.

These results are taken from patent US20240238258A1, “INHIBITORS OF PROTEIN TYROSINE PHOSPHATASE, COMPOSITIONS, AND METHODS OF USE” (BRISTOL-MYERS SQUIBB COMPANY, priority 2022, published 2024).

Assay [1] addresses T1, human PTPN2 (Homo sapiens, UniProt P17706).
T1 sequence (P17706 1-415): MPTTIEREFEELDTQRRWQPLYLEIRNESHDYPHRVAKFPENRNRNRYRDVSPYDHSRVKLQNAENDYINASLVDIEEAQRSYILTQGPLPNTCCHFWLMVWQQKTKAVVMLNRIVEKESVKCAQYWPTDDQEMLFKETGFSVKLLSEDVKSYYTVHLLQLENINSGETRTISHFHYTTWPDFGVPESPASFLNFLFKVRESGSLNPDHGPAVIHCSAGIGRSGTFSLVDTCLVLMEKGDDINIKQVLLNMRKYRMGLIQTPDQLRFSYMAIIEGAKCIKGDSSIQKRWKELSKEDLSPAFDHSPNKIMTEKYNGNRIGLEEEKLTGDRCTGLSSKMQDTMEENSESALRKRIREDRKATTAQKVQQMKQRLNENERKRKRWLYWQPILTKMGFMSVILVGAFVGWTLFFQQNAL
The experiment in a line: Phosphatase activity assay using DiFMUP as substrate (PTPN2 BCHEM DIFMUP). In kind it is biochemical. Set-up: purchased MilliporeSigma SRP5075. The note with it: human PTPN2 0.15 nM, 10 mM DTT, room temperature. The method, then:
The PTPN2 biochemical assay was performed as follows, a 5× stock solution of human PTPN2 (SRP5075, MilliporeSigma, Burlington, MA) and a 1.25× stock solution of DiFMUP (D6567, ThermoFisher Scientific, Waltham, MA), were prepared in 1× reaction buffer consisting of 50 mM HEPES, pH 7.4, 1 mM EDTA, 150 mM NaCl, 0.2 mg/mL BSA, 100 U/mL catalase and 10 mM DTT. […] of the DiFMUP substrate solution, for a final concentration of […] DiFMUP substrate, was added to a Corning 3574 384-well, white, non-binding surface microtiter plate containing […] of serially diluted test compounds prepared in DMSO. The reactions were started with the addition of […] of the enzyme solution, for a final PTPN2 concentration of 0.15 nM, and monitored every 105 seconds for 60 minutes at λEX 360/λEM 460 in a BioTek Synergy HTX plate reader (Agilent Technologies, Santa Clara, CA) at room temperature. The initial linear portions of the progress curves were fit according to a linear equation to yield the slopes and converted to % inhibition based on a value of 100% activity for the no inhibitor treated control. IC50 values of each compound were obtained by fitting the % inhibition-compound concentration curves using Dotmatics software (Dotmatics, Bishops Stortford, Hertfordshire, England).
(§1) For IC50 data, High DDT concentration and/or DiFMUP substrate assays were used; a skilled artisan may use either assay.

Another assay deals with B16-F10 cells. The experiment in a line: Cell proliferation assay in B16-F10 cells with IFN-gamma (CellTiter-Glo). In kind it is cell-based. To be noted: 120 h, mouse IFN-gamma 10 ng/mL, read-out: PTPN2 Prolif 5d B16F10 EC50. The method, then:
B16-F10 cells (ATCC, Manassas, VA, #CRL-6475) were cultured in DMEM growth medium (ThermoFisher Scientific, Waltham, MA, #11995-040) supplemented with 10% heat inactivated FBS (ThermoFisher Scientific, #16140-071) and 1% pen/strep (ThermoFisher Scientific, #15140-122). The cells were seeded into two white opaque 384-well tissue culture treated microplates (PerkinElmer, Waltham, MA, #6007688) at a density of 100 cells/well in 20 uL total volume and incubated overnight at 37 C and 5% CO2. 30 nL of compounds dissolved in DMSO were then transferred from a source plate into target wells with the Echo650 acoustic liquid handler (Beckman Coulter, Indianapolis, IN). Negative control wells received 30 nL of DMSO only (0.15% final concentration). Plates were returned to the incubator for 1 hour and then cells treated with either 5 uL of growth medium or 5 uL of growth medium containing 50 ng/ml of recombinant mouse IFN-gamma protein (R&D Systems, Minneapolis, MN, #485-MI/CF, 10 ng/mL final concentration) using the Assist automated pipetting platform (INTEGRA Biosciences, Hudson, NH). Plates were incubated at 37C for 4 days and cell proliferation assayed with the CellTiter-Glo reagent (Promega, Madison, WI, #G7573, 25 uL per well). […] Off-target compound mediated cytotoxicity was identified by checking for growth inhibition in the absence of IFNg.
A general note: Cellular ATP, detected with luciferase, serves as a proxy for viable cell number.

For assay [2], the system named is phosphorylated STAT1 in B16-F10 cells. Nature of the assay: Phospho-STAT1 (Tyr701) HTRF assay in B16-F10 cells with IFN-gamma. In kind it is cell-based. To be noted: mouse IFN-gamma 100 ng/mL, 1 hour, read-out: pSTAT1 HTRF B16 EC50. The method, then:
B16-F10 cells (ATCC, Manassas, VA, #CRL-6475) were cultured in DMEM growth medium (ThermoFisher Scientific, Waltham, MA, #11995-040) supplemented with 10% heat inactivated FBS (ThermoFisher Scientific, #16140-071) and 1% pen/strep (ThermoFisher Scientific, #15140-122). The cells were seeded into a white opaque 384-well tissue culture treated microplate (PerkinElmer, Waltham, MA, #6007688) at a density of 10,000 cells/well in 20 uL total volume and incubated overnight at 37 C and 5% CO2. 30 nL of compounds dissolved in DMSO were then transferred from a source plate into target wells with the Echo650 acoustic liquid handler (Beckman Coulter, Indianapolis, IN). Negative control wells received 30 nL of DMSO only (0.15% final concentration). Plates were returned to the incubator for 1 hour and then cells treated with either 5 uL of growth medium or 5 uL of growth medium containing 500 ng/ml of recombinant mouse IFN-gamma protein (R&D Systems, Minneapolis, MN, #485-MI/CF, 100 ng/mL final concentration) using the Assist automated pipetting platform (INTEGRA Biosciences, Hudson, NH). Plates were incubated at 37 C for 1 hour and assayed for phosphorylated STAT1 protein levels with the phospho-STAT1 (Tyr701) HTRF kit (Cisbio, Bedford, MA, #63ADK026PEH) according to manufacturer's instructions. HTRF signal intensity was collected with the EnVision 2105 plate reader (PerkinElmer) 24 hours later and analyzed with the Dotmatics software platform to calculate compound IC50 values.
(In TR-FRET formats the signal depends on donor and acceptor labels being close together.)

Assay [3] has as its target T1, human PTPN2. Nature of the assay: PTPN2 BCHEM (PhosphoSens assay, substrate AQT0264). The assay is classed as biochemical. The note with it: PhosphoSens substrate AQT0264 20 μM, PTPN2 150 pM, room temperature. As for the experimental part:
A PhosphoSens® kinase assay was performed as described by the vendor (AssayQuant Technologies, Marlborough, MA). Briefly, 1000× solutions of compounds were prepared in DMSO via serial dilution of the 10 mM DMSO stocks using 3-fold intervals in a 384-well reagent plate. 50 nL of the compound dilution series was then added to the corresponding wells of a 384-well assay plate. 40 mL of 1.25× substrate (AQT0264) in 1× assay buffer (50 mM HEPES pH 7.5, 500 μM EGTA, […] MgCl2, 0.01% Brij-35, 1% Glycerol, 1 mM DTT, and 0.2 mg/mL BSA) was transferred to each well of the assay plate to achieve a final substrate concentration of 20 μM. Finally, […] of 5× PTPN2 enzyme stock was added to each well of the assay plate for a final enzyme concentration of 150 pM. Reaction progress curves were collected by sampling fluorescence intensity at the excitation wavelength 360 nm (λex360) and emission wavelength 480 nm (λem480) every 71 seconds for one hour using a Synergy H4 plate reader (BioTek Instruments/Agilent Technologies, Winooski, VT) at room temperature.
as §1

A word on the IC50: it is the concentration needed to halve the response being measured. The EC50 is the concentration needed to bring the measured effect to its halfway point. Turning to `Cn1ccc(NCc2cc(O)c(N3CC(=O)NS3(=O)=O)c(F)c2)n1` [EXAMPLE 6, 5-(2-fluoro-6-hydroxy-4-(((1-methyl-1H-pyrazol-3-yl)amino)methyl)phenyl)-1,2,5-thiadiazolidin-3-one 1,1-dioxide], at human PTPN2 [1], the IC50 is 0.01 µM. Moreover, the values for the EC50 (in the assay on B16-F10 cells; in assay [2]) were 0.82 µM and 6.85 µM, respectively.
The matching figures for `Cc1cnc(NCc2cc(O)c(N3CC(=O)NS3(=O)=O)c(F)c2)[nH]1` [EXAMPLE 8, 5-(2-fluoro-6-hydroxy-4-(((5-methyl-1H-imidazol-2-yl)amino)methyl)phenyl)-1,2,5-thiadiazolidin-3-one 1,1-dioxide]: 0.16 µM, 5.9 µM and 4.65 µM.
The matching figures for `O=C1CN(c2c(O)cc(CNc3ncc[nH]3)cc2F)S(=O)(=O)N1` [EXAMPLE 10, 5-(4-(((1H-imidazol-2-yl)amino)methyl)-2-fluoro-6-hydroxyphenyl)-1,2,5-thiadiazolidin-3-one 1,1-dioxide]: 0.006 µM, 0.18 µM and 0.09 µM.
Consider `O=C1CN(c2c(O)cc(CNc3nccs3)cc2F)S(=O)(=O)N1` [EXAMPLE 9, 5-(2-fluoro-6-hydroxy-4-((thiazol-2-ylamino)methyl)phenyl)-1,2,5-thiadiazolidin-3-one 1,1-dioxide], for which, on human PTPN2 [1], the IC50 was 0.003 µM. In addition, the EC50 in the assay with B16-F10 cells came to 2.3 µM; in assay [2] it was 1.43 µM.
Regarding `Cc1cc(NCc2cc(O)c(N3CC(=O)NS3(=O)=O)c(F)c2)sn1` [EXAMPLE 14, 5-(2-fluoro-6-hydroxy-4-(((3-methylisothiazol-5-yl)amino)methyl)phenyl)-1,2,5-thiadiazolidin-3-one 1,1-dioxide], the 50% inhibitory concentration (IC50) at human PTPN2 [1] came out at 0.02 µM. Also, the EC50 with B16-F10 cells was determined as 2.57 µM; in assay [2], 0.69 µM.
The matching figures for `O=C1CN(c2c(O)cc(CNc3nc[nH]n3)cc2F)S(=O)(=O)N1` [EXAMPLE 5, 5-(4-(((1H-1,2,4-triazol-3-yl)amino)methyl)-2-fluoro-6-hydroxyphenyl)-1,2,5-thiadiazolidin-3-one 1,1-dioxide]: 0.04 µM, 1.69 µM and 0.93 µM.
In the case of `O=C1CN(c2c(O)cc(CNc3cc[nH]n3)cc2F)S(=O)(=O)N1` [EXAMPLE 2, 5-(4-(((1H-pyrazol-3-yl)amino)methyl)-2-fluoro-6-hydroxyphenyl)-1,2,5-thiadiazolidin-3-one 1,1-dioxide], the IC50 at human PTPN2 [1] worked out at 0.02 µM. For the same compound, the EC50 (in the assay with B16-F10 cells; in assay [2]) was more than 15 µM throughout.
For the compound `Cc1ccc(-c2csc(N(C)Cc3cc(O)c(N4CC(=O)NS4(=O)=O)c(F)c3)n2)c(C)c1` [EXAMPLE 1, 5-(4-(((4-(2,4-dimethylphenyl)thiazol-2-yl)(methyl)amino)methyl)-2-fluoro-6-hydroxyphenyl)-1,2,5-thiadiazolidin-3-one 1,1-dioxide], the values for the IC50 at human PTPN2 [1] and at human PTPN2 [3] were 0.72 µM and 0.94 µM, respectively. The EC50 (with B16-F10 cells; in assay [2]) was more than 15 µM throughout.
Turning to `Cc1nnc(NCc2cc(O)c(N3CC(=O)NS3(=O)=O)c(F)c2)s1` [EXAMPLE 12, 5-(2-fluoro-6-hydroxy-4-(((5-methyl-1,3,4-thiadiazol-2-yl)amino)methyl)phenyl)-1,2,5-thiadiazolidin-3-one 1,1-dioxide], the IC50 at human PTPN2 [1] was determined as 0.01 µM. Besides, the EC50 is 0.56 µM with B16-F10 cells and 0.23 µM in assay [2].
On to `Cc1csc(NCc2cc(O)c(N3CC(=O)NS3(=O)=O)c(F)c2)n1` [EXAMPLE 13, 5-(2-fluoro-6-hydroxy-4-(((4-methylthiazol-2-yl)amino)methyl)phenyl)-1,2,5-thiadiazolidin-3-one 1,1-dioxide], for which the IC50 at human PTPN2 [1] was 0.01 µM. Moreover, the results for the EC50 (with B16-F10 cells; in assay [2]) were 1.87 µM and 0.23 µM, respectively.
In the same order, the values of `Cc1cc(NCc2cc(O)c(N3CC(=O)NS3(=O)=O)c(F)c2)[nH]n1` [EXAMPLE 15, 5-(2-fluoro-6-hydroxy-4-(((3-methyl-1H-pyrazol-5-yl)amino)methyl)phenyl)-1,2,5-thiadiazolidin-3-one 1,1-dioxide] are 0.004 µM, 0.38 µM and 0.63 µM.
The matching figures for `O=C1CN(c2c(O)cc(CNc3nncs3)cc2F)S(=O)(=O)N1` [EXAMPLE 7, 5-(4-(((1,3,4-thiadiazol-2-yl)amino)methyl)-2-fluoro-6-hydroxyphenyl)-1,2,5-thiadiazolidin-3-one 1,1-dioxide]: 0.01 µM, 0.46 µM and 0.15 µM.
As for `O=C1CN(c2c(O)cc(CNc3ccon3)cc2F)S(=O)(=O)N1` [EXAMPLE 3, 5-(2-fluoro-6-hydroxy-4-((isoxazol-3-ylamino)methyl)phenyl)-1,2,5-thiadiazolidin-3-one 1,1-dioxide], on human PTPN2 [1], the IC50 turned out to be 0.02 µM. In addition, the EC50 amounted to 1.12 µM with B16-F10 cells and 0.03 µM in assay [2].
Consider `Cn1ccnc1NCc1cc(O)c(N2CC(=O)NS2(=O)=O)c(F)c1` [EXAMPLE 11, 5-(2-fluoro-6-hydroxy-4-(((1-methyl-1H-imidazol-2-yl)amino)methyl)phenyl)-1,2,5-thiadiazolidin-3-one 1,1-dioxide], for which, on human PTPN2 [1], the half-maximal inhibitory concentration (IC50) turned out to be 0.01 µM. Besides, the EC50 amounted to 0.16 µM in the assay with B16-F10 cells and 0.21 µM in assay [2].
